We go through one compound from publication PMC3785478, “Crystal Structures of Human Muscle Fructose-1,6-Bisphosphatase: Novel Quaternary States, Enhanced AMP Affinity, and Allosteric Signal Transmission Pathway” (PLoS ONE, 2013).

Assay [1] deals with T1, human muscle fructose-1,6-bisphosphatase (hmFru-1,6-Pase) (Homo sapiens, UniProt O00757).
T1 construct: gene FBP2
T1 sequence (O00757 1-339): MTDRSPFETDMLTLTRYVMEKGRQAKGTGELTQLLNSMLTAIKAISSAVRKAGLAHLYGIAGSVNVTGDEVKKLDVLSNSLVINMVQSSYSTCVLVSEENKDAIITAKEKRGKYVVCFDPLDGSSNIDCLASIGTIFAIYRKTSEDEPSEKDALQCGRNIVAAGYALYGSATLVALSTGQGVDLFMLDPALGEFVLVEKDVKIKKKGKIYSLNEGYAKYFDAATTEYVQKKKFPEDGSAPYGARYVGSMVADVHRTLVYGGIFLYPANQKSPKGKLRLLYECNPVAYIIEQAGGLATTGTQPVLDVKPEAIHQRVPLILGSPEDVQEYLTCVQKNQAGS
Nature of the assay: coupled enzyme assay (G6PDH/phosphoglucose isomerase, NADP, […] nm), AMP titration. It is filed as biochemical. Particulars: read-out: Wild-type Fru-1,6-Pase.

The target of assay [2] is T2, human muscle fructose-1,6-bisphosphatase (hmFru-1,6-Pase) (Homo sapiens, UniProt O00757, Q33R).
T2 construct: gene FBP2; model includes residues 11–54 and 72–335
T2 sequence (O00757 2-339 Q33R): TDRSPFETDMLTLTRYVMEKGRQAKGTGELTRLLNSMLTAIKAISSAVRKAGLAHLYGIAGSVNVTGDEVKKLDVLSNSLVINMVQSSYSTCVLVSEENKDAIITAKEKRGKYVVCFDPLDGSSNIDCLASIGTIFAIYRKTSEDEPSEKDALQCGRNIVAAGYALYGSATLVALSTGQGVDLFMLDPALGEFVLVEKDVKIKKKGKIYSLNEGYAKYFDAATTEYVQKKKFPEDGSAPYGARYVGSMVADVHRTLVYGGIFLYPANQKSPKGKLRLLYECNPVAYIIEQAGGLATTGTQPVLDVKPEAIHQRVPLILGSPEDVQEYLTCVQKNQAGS
The assay can be described thus: also coupled enzyme inhibition assay (I0.[…]). Type of assay: biochemical.

With `Nc1ncnc2c1ncn2[C@@H]1O[C@H](COP(=O)(O)O)[C@@H](O)[C@H]1O` [AMP], the results for the IC50 in assay [1] and in assay [2] were 0.19 µM and 3.65 µM, respectively.
